# Molecular target: T1, FLT3 kinase (Homo sapiens, UniProt P36888)
# T1 construct: purchased SignalChem
# T1 sequence (P36888 27-993): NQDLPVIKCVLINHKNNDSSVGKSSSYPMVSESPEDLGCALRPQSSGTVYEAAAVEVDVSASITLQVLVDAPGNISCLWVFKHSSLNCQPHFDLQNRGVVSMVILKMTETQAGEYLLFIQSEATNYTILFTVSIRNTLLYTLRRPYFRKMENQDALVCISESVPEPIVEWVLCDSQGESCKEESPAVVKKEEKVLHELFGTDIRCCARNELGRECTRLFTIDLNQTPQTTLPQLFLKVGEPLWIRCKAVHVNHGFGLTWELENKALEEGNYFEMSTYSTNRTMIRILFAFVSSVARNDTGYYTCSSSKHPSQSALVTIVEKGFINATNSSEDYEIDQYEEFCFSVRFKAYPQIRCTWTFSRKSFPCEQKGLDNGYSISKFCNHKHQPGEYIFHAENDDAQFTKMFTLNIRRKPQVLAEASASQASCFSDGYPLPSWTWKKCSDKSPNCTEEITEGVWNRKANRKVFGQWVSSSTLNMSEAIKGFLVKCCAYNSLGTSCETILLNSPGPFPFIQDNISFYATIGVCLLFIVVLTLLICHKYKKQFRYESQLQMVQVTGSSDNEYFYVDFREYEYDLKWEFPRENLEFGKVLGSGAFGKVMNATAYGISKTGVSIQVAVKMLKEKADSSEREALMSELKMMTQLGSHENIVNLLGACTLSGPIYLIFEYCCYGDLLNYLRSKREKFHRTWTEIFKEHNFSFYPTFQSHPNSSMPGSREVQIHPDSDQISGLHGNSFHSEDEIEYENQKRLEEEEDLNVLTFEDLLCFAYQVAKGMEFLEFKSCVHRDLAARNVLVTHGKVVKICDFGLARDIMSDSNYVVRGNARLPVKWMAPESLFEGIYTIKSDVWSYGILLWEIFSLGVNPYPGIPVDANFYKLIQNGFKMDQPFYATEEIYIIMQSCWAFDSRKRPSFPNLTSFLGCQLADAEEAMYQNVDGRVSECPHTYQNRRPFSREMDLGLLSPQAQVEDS
# Assay: FLT3 kinase assay (AlphaScreen)
# Format: biochemical
# Conditions: read-out: Ranking of IC50 values, FLT3
# Procedure, shortened: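 AlphaScreen detection of biotin-poly(Glu4:Tyr1) phosphorylation by 1.5 ng recombinant FLT3 (10 μM ATP, pH 7.0 MOPS, 10 mM MgCl2; 30 °C, 30 min, EDTA quench). IC50 values derived from serially diluted compound tested in duplicate.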
row,SMILES,IC50 [nM]
1,"Cn1ncc2ccc(-c3n[nH]c4c3Cc3sc(-c5cnc(C(=O)N6CCOCC6)nc5)cc3-4)cc21 [Compound 41, (5-(3-(1-methyl-1H-indazol-6-yl)-1,4-dihydrothieno[2′,3′:4,5]cyclopenta[1,2-c]pyrazol-6-yl)pyrimidin-2-yl) (morpholino)methanone]",< 1
2,"Cn1ncc2ccc(-c3n[nH]c4c3Cc3sc(-c5ccc(CN6CCOCC6)nc5)cc3-4)cc21 [Compound 10, 4-((5-(3-(1-methyl-1H-indazol-6-yl)-1,4-dihydro-thieno[2′,3′:4,5]cyclopenta [1,2-c]pyrazol-6-yl)pyridin-2-yl)methyl)morpholine]",< 1
3,"Cn1ncc2ccc(-c3n[nH]c4c3Cc3sc(-c5ccc(CN6CCC(F)(F)C6)cc5)cc3-4)cc21 [Compound 67, 6-(4-((3,3-difluoro-pyrrolidin-1-yl)methyl)phenyl)-3-(1-methyl-1H-indazol-6-yl)-1,4-dihydro-thieno[2′,3′:4,5]cyclopenta [1,2-c]pyrazole]",1 to 10
4,"Cn1ncc2ccc(-c3n[nH]c4c3Cc3sc(-c5cccc(OCCN6CCOCC6)c5)cc3-4)cc21 [Compound 70, 4-(2-(3-(3-(1-methyl-1H-indazol-6-yl)-1,4-dihydro-thieno[2′,3′:4,5]cyclopenta [1,2-c]pyrazol-6-yl)phenoxy)ethyl)morpholine]",1 to 10

# — patent US12448394B2, “Heterocyclic pyrazole derivatives as type III receptor tyrosine kinase inhibitors” (DEVELOPMENT CENTER FOR BIOTECHNOLOGY, priority 2019, dated 2025)
